According to patent EP4667467A1, “PROTAC DEGRADERS OF MLLT1 AND/OR MLLT3” (Dark Blue Therapeutics Ltd, priority 2024, dated 2025):

Biological target: T1, MLLT1 (Homo sapiens, UniProt Q03111)
T1 construct: endogenous in cells; host or cells: MV4-11 (ATCC CRL-9591)
T1 sequence (Q03111 1-559): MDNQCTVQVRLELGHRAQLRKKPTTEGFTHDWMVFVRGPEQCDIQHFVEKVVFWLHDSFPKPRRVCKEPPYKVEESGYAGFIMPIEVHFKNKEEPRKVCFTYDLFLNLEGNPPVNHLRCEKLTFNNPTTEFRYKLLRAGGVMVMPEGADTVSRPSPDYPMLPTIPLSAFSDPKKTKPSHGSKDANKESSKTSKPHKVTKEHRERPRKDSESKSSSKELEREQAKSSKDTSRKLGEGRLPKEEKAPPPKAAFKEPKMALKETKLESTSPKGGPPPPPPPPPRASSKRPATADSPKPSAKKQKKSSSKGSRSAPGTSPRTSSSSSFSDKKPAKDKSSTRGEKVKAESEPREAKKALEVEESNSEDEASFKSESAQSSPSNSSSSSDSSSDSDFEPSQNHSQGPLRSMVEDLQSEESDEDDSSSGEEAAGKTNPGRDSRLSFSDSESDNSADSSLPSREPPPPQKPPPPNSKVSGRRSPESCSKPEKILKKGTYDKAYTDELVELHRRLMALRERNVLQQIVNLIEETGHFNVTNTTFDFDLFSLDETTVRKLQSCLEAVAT
Assay: MLLT1 Degradation Assay (JESS automated chemiluminescent detection, MV4-11 cells)
Assay type: cell-based
Details: 24h, with respect to DMSO control; for MLLT1 % Degradation @ 0.01 µM: 0.01 µM (10 nM) test compound; for MLLT1 % Degradation @ 0.1 µM: 0.1 µM (100 nM) test compound; for MLLT 1 % Degradation @ 1 µM: 1 µM (1000 nM) test compound
Procedure, shortened: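 MV4-11 cells were treated for 24 h at 37 °C, 5% CO2 with compound at 1000, 100 and 10 nM (0.1% DMSO). MLLT1 was quantified by automated capillary chemiluminescent immunodetection (JESS). Band peak areas were expressed as % degradation relative to DMSO control.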

CN1CCC[C@@H]1c1cc2cnc(NC(=O)c3ccc(-c4cnn(CCOC5CCN(c6cccc(C(=O)N[C@H]7CCC(=O)NC7=O)n6)CC5)c4)cc3)cc2[nH]1 [Example 61, N-((S)-2,6-dioxopiperidin-3-yl)-6-(4-(2-(4-(4-((2-((R)-1-methylpyrrolidin-2-yl)-1H-pyrrolo[3,2-c]pyridin-6-yl)carbamoyl)phenyl)-1H-pyrazol-1-yl)ethoxy)piperidin-1-yl)picolinamide]
MLLT1 % Degradation @ 0.01 µM: A (Category A: A ≥ 75% degradation)
MLLT1 % Degradation @ 0.1 µM: A (Category A: A ≥ 75% degradation)
MLLT 1 % Degradation @ 1 µM: B (Category B: 50% ≤ B < 75% degradation)

CN1CCC[C@@H]1c1cc2cnc(NC(=O)CCCCCCCCNc3cccc4c3C(=O)N(C3CCC(=O)NC3=O)C4=O)cc2[nH]1 (stereo partly drawn) [Example 30, 9-{[2-(2,6-dioxopiperidin-3-yl)-1,3-dioxoisoindol-4-yl]amino}-N-{2-[(2R)-1-methylpyrrolidin-2-yl]-1H-pyrrolo[3,2-c]pyridin-6-yl}nonanamide]
MLLT1 % Degradation @ 0.01 µM: C (Category C: 25% ≤ C < 50% degradation)
MLLT1 % Degradation @ 0.1 µM: B (Category B: 50% ≤ B < 75% degradation)
MLLT 1 % Degradation @ 1 µM: A (Category A: A ≥ 75% degradation)

CN1CCC[C@@H]1c1cc2cnc(NC(=O)c3ccc(CCCCC#Cc4cccc5c4CN(C4CCC(=O)NC4=O)C5=O)nc3)cc2[nH]1 (stereo partly drawn) [Example 10, 6-(6-(2-(2,6-dioxopiperidin-3-yl)-1-oxoisoindolin-4-yl)hex-5-yn-1-yl)-N-(2-((R)-1-methylpyrrolidin-2-yl)-1H-pyrrolo [3,2-c]pyridin-6-yl) nicotinamide]
MLLT1 % Degradation @ 0.01 µM: A (Category A: A ≥ 75% degradation)
MLLT1 % Degradation @ 0.1 µM: A (Category A: A ≥ 75% degradation)
MLLT 1 % Degradation @ 1 µM: B (Category B: 50% ≤ B < 75% degradation)

CN1CCC[C@@H]1c1cc2cnc(NC(=O)c3ccc(CCCC#Cc4ccc(C(=O)N[C@H]5CCC(=O)NC5=O)nc4)cc3)cc2[nH]1 [Example 11, N-((S)-2,6-dioxopiperidin-3-yl)-5-(5-(4-((2-((R)-1-methylpyrrolidin-2-yl)-1H-pyrrolo[3,2-c]pyridin-6-yl)carbamoyl)phenyl)pent-1-yn-1-yl)picolinamide]
MLLT1 % Degradation @ 0.01 µM: D (Category D: D < 25% degradation)
MLLT1 % Degradation @ 0.1 µM: C (Category C: 25% ≤ C < 50% degradation)
MLLT 1 % Degradation @ 1 µM: B (Category B: 50% ≤ B < 75% degradation)

CN1CCC[C@@H]1c1cc2cnc(NC(=O)c3ccc(CCCCC#Cc4cccc(C(=O)N[C@H]5CCC(=O)NC5=O)n4)cc3)cc2[nH]1 [Example 7, N-((S)-2,6-dioxopiperidin-3-yl)-6-(6-(4-((2-((R)-1-methylpyrrolidin-2-yl)-1H-pyrrolo[3,2-c]pyridin-6-yl)carbamoyl)phenyl)hex-1-yn-1-yl)picolinamide]
MLLT1 % Degradation @ 0.01 µM: A (Category A: A ≥ 75% degradation)
MLLT1 % Degradation @ 0.1 µM: A (Category A: A ≥ 75% degradation)
MLLT 1 % Degradation @ 1 µM: A (Category A: A ≥ 75% degradation)

CN1CCC[C@@H]1c1cc2cnc(NC(=O)c3ccc(-c4cnn(CCCC#Cc5ccc6c(c5)CN(C5CCC(=O)NC5=O)C6=O)c4)cc3)cc2[nH]1 (stereo partly drawn) [Example 22, 4-(1-(5-(2-(2,6-dioxopiperidin-3-yl)-1-oxoisoindolin-5-yl)pent-4-yn-1-yl)-1H-pyrazol-4-yl)-N-(2-((R)-1-methylpyrrolidin-2-yl)-1H-pyrrolo[3,2-c]pyridin-6-yl)benzamide]
MLLT1 % Degradation @ 0.01 µM: A (Category A: A ≥ 75% degradation)
MLLT1 % Degradation @ 0.1 µM: A (Category A: A ≥ 75% degradation)
MLLT 1 % Degradation @ 1 µM: A (Category A: A ≥ 75% degradation)

CN1CCC[C@@H]1c1cc2cnc(NC(=O)c3cnc(N4CCC(C#Cc5cccc6c5CN(C5CCC(=O)NC5=O)C6=O)CC4)nc3)cc2[nH]1 (stereo partly drawn) [Example 65, 2-(4-((2-(2,6-dioxopiperidin-3-yl)-1-oxoisoindolin-4-yl)ethynyl)piperidin-1-yl)-N-(2-((R)-1-methylpyrrolidin-2-yl)-1H-pyrrolo[3,2-c]pyridin-6-yl)pyrimidine-5-carboxamide]
MLLT1 % Degradation @ 0.01 µM: B (Category B: 50% ≤ B < 75% degradation)
MLLT1 % Degradation @ 0.1 µM: B (Category B: 50% ≤ B < 75% degradation)
MLLT 1 % Degradation @ 1 µM: B (Category B: 50% ≤ B < 75% degradation)
